# Reference: patent US4990531A, “Derivatives of 1-arylsulphonyl-2-pyrrolidinone and their use as medicaments” (Roussel Uclaf, priority 1988, dated 1991)
# Like-named read-outs stand apart in the source and are kept apart here.
# What was measured:
# [1] = tested on: contractions induced by acetylcholine, isolated ileum; assay: Antagonism of acetylcholine-induced contractions, isolated guinea-pig ileum; conditions: acetylcholine 1×10^-6 M; contact time one minute; read-out: Antagonism with various agents (IC50): Ach.
# Protocol: The interaction of the compounds with various receptors was evaluated on the isolated ileum of a guinea-pig according to the following method.
# Segments of the ileum of guinea-pigs of 2.5-3 cm were washed and immediately suspended in a bath containing 10 ml of Tyrode's solution at 37° C. and aerated with a mixture of oxygen (95%) and carbon dioxide (5%). After a stabilization period of at least 30 minutes contractions were recorded, while the preparation was maintained under constant tension of 1 g, by means of a detector connected to a polygraph. The agonistic action was evaluated by leaving the compound in contact with the isolated tissue for a period necessary to show the maximum […]; then it was washed with the Tyrode's solution. The following dose was added only after the preparation had returned to its base line. Arecoline was used as a reference product. The antagonist action was evaluated on the contractions induced by acetylcholine (1×10^-6 M), histamine (1×10^-5 M), serotonine (1×10^-6 M) and barium chloride (2×10^-4 M). […] The contact time before adding the agonist was one minute.
# For each compound the does response curves are obtained with 4 to 6 different concentrations and 3 to 5 independent tests. The agonist activity is expressed by pD2 (negative logarithm of the dose which produces 50% of the maximum effect).
# adrenoreceptor alpha 2 = assay: Affinity for other receptors: adrenoreceptor alpha 2; assay type: binding; conditions: negligible affinity
# [2] = target: serotonine 5 HT2 receptor (Homo sapiens, UniProt P28223); assay: Affinity for other receptors: serotonine 5 HT2; assay type: binding; conditions: negligible affinity
# Muscarine receptor 1 = target: T1, Muscarine receptor 1 (Rattus norvegicus, UniProt P08482); assay: Bonding with cerebral receptors: muscarine receptor 1 (3H pirenzepine, rat cortex); assay type: binding; conditions: 0.25 nM 3H pirenzepine, 60 min, 25° C., pH 7.4; read-out: Affinity for muscarine receptor M1 (/3H/Pirenzepine), IC50
# T1 construct: prepared from cortex removed from the brains of a male rat; from tissue; host or cells: rat cerebral cortex homogenate (male rat, Iffa Credo)
# Protocol: This is prepared from cortex removed from the brains of a male rat weighing 150 to 200 g, (Iffa Credo) pulverized with Polytron in a buffer Na/K 10 mM pH 7.4. After incubation (aliquots of 0.5 ml of homogenate) for 60 minutes at 25° C. in the presence of 0.25 nM of ^3 H pirenzepine, either alone, or with the product under test, or with an excess of pirenzepine at 10^-5 M (in order to determine the non-specific radioactivity fixed), the incubates are cooled and filtered.
# The filtration is carried out on Whatman GF/C filters prewashed in a solution of polyethylene-imine at 0.05%. The filters are rinsed with 3×5 ml of phosphate Na/K buffer 10 mM pH 7.4, then measurements are made by liquid scintillation.
# [3] = tested on: cholinomimetic effects induced by carbachol; assay: In vivo anticholinergic action: inhibition of carbachol-induced cholinomimetic effects; set-up: species or system CD1 male mice; conditions: i.p.; for ED50 / ED (1 degree C): Mus musculus, ip, 0.5 h, carbachol 1 mg/kg s.c. 30 min later; for ED (1 degree C): rectal temperature, read-out: Body Temperature: dose able to increase by 1° C. the hypothermic effect induced by carbachol; for selective anticholinergic action in vivo: mice, in words
# Protocol: The anticholinergic activity of the compounds was determined by evaluating the capacity to inhibit cholinomimetic effects induced by carbachol. Atropine sulphate was used as reference product.
# CD1 male mice are used weighing 25 to 30 g. They are divided into groups of 5 animals and treated by intraperitoneal route, in scaled doses, with the products or with 0.25% of Methocel for the controls. 10 animals are used for each dose. 30 minutes after the administration of the compounds, the mice are subcutaneously injected with 1 mg/kg of carbachol, dissolved in physiological serum.
# Each animal was examined 30 minutes after the injection of carbachol to evaluate the presence of diarrhea, salivation and watering of the eyes; the body temperature was also measured using a thermocouple inserted 1.5 cm into the rectum.
# For each compound, there was determined, and recorded in the following table, the dose able to inhibit, in 50% of the animals, the appearance of peripheral cholinomimetic symptoms induced by carbachol, and to increase by 1° C. the hypothermic effect induced by the cholinergic agent.
# [4] = target: T2, muscarine receptors, involved in the contractions of the colon (Rattus norvegicus, UniProt P08483); assay: Antagonist affinity and type of antagonism (Schild), isolated colon of rat; conditions: for "Slope" of Schild plot, isolated colon of rat / Kb: cumulative acetylcholine, Schild's method, contact 5 min; for Kb: read-out: pA2, isolated colon of rat (converted); for displacement of the dose-response curve of acetylcholine: isolated colon of rat, in words
# T2 construct: segments of the colon of rats of about 2.5 cm; from tissue; host or cells: isolated rat colon segments
# Protocol: The following method was used: segments of the colon of rats of about 2.5 cm are washed and suspended in an insulated bath containing 10 ml of a solution of De Jalon having the following composition: (mM): NaCl 154; KCl 5.7; CaCl2 0.27; NaHCO3 5.9 and glucose 2.5. The temperature of the bath is maintained at 32° C. In these conditions, while maintaining the preparation under a tension of 1 g, the spontaneous activity of the colon is minimal. After a stabilization period of at least 30 minutes, the tension variations are recorded using an isometric transducer connected to a recorder. A series of tests was carried out to evaluate the antagonist activity in relation to the contractions induced by a maximum dose of acetylcholine. (3×10^-6 M).
# For each compound the dose-response curves are obtained with 4 to 6 different concentrations and 3 to 5 independent tests.
# In a second series of tests the acetylcholine is added to the bath in cumulative doses according to the van Rossum method (J. M. van Rossum, Arch, Int. Pharmacodyn. 143, 299, 1963). Having obtained two equal and consecutive dose-response curves with acetylcholine, a third dose-responsecurve is obtained in the presence of the compound (contact time of compound before acetylcholine=5 min.) Each compound was tested with 3-4 different concentrations
# The antagonist affinity and the type of antagonism (competitive, non-competitive) for the muscarine receptors was calculated according to Schild's method (H. D. Schild, Brit. J. Pharmacol. 2, 189, 1947).
# [5] = read-out: dose able to inhibit, in 50% of the animals, Diarrhea
# [6] = read-out: dose able to inhibit, in 50% of the animals, Salivation
# [7] = read-out: dose able to inhibit, in 50% of the animals, Watering of Eyes
# T2 sequence (P08483 whole entry): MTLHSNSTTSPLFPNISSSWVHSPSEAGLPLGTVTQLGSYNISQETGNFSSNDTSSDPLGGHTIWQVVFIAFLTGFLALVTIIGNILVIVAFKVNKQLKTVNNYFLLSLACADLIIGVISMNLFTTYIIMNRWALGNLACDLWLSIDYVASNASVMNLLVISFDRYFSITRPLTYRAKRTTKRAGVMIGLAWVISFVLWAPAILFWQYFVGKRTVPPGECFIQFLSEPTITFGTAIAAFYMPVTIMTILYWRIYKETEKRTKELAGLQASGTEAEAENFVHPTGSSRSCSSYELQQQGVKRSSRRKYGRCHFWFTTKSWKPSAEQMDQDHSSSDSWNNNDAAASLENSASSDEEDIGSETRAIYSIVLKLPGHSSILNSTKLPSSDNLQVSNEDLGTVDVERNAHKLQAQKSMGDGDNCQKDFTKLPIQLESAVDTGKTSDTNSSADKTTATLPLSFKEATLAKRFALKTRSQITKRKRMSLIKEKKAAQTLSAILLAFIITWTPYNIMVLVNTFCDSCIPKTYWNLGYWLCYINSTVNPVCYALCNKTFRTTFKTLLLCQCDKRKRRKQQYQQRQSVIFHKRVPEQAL
# T1 sequence (P08482 whole entry): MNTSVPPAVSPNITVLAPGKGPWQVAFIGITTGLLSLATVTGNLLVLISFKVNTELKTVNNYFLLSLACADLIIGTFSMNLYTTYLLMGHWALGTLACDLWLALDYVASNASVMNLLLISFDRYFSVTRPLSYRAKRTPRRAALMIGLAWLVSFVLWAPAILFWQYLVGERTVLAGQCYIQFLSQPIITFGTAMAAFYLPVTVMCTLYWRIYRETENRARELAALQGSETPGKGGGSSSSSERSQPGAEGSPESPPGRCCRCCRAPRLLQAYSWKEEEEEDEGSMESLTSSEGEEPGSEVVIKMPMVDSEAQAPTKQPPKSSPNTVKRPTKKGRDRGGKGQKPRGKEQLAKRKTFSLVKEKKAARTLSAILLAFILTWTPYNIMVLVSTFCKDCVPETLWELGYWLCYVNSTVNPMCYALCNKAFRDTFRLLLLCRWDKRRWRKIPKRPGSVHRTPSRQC
# serotonine 5 HT2 receptor, sequence (P28223 whole entry): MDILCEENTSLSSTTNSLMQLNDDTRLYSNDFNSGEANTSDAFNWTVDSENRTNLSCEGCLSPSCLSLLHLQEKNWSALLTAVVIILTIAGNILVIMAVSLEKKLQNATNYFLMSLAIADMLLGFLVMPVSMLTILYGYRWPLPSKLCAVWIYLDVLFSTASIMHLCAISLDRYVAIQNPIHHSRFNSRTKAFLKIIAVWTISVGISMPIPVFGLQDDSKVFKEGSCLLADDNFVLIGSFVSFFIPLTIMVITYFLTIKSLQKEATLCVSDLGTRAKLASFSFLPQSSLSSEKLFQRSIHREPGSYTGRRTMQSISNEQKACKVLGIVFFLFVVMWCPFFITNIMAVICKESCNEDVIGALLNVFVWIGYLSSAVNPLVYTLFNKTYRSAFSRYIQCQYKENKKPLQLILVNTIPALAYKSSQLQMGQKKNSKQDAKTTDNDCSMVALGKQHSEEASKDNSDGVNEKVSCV
Compound,IC50 [1] [µM],IC50 (adrenoreceptor alpha 2) [µM],IC50 [2] [µM],IC50 (Muscarine receptor 1) [µM],"ED50 [3, 5] [mg/kg]","ED50 [3, 6] [mg/kg]","ED50 [3, 7] [mg/kg]",ED (1 degree C) [3] [mg/kg],selective anticholinergic action in vivo [3],"""Slope"" of Schild plot, isolated colon of rat [4]",Kb [4] [µM],displacement of the dose-response curve of acetylcholine [4]
"CC(C)(C)c1ccc(S(=O)(=O)N2CCCC2=O)cc1 [Example 1, 1-(4-tert-butylbenzenesulphonyl)-2-pyrrolidinone]",0.064,5 to 10,5 to 10,0.13,7,10,> 50,50,selective anticholinergic action on the intestinal musculature,0.89,0.017,parallel displacement towards the right of the dose-response curve of acetyl-choline without reducing the maximum contraction
"CCN(CC)c1ccc(S(=O)(=O)N2CCCC2=O)cc1 [Example 2, 1-[4-(diethylamino)benzenesulphonyl]-2-pyrrolidinone]",0.062,5 to 10,5 to 10,0.098,7,> 50,> 50,> 50,selective anticholinergic action on the intestinal musculature,1.08,0.0447,parallel displacement towards the right of the dose-response curve of acetyl-choline without reducing the maximum contraction
